The source of these data is paper PMC9501280, “Anti-Inflammatory Activity of Soluble Epoxide Hydrolase Inhibitors Based on Selenoureas Bearing an Adamantane Moiety” (International Journal of Molecular Sciences, 2022).

A short description of series [1]: Antiradical activity in nonenzymatic quinoid oxidation of adrenaline. To be noted: adrenaline autoxidation without compound = 100%; initial concentration 25 µM. The procedure:
The antiradical activity of compounds 4a–g and 5a in the reaction of nonenzymatic quinoid oxidation of adrenaline (1-(3,4-dioxyphenyl)-2-methylaminoethanol) in alkaline bicarbonate buffer was evaluated. As a result of this reaction, not only the superoxide anion radical is formed, but also radicals of carbonate–bicarbonate anions, which makes it possible to reveal the total antiradical activity of potential antioxidants. […] Thus, we confirmed the antiradical activity of compounds 4a–g and 5a with respect to O2^–• generated in enzymatic and nonenzymatic model systems.
SOD-protective activity of the biopreparation was the ability to utilize the superoxide anion radical O2^–•, as determined by the method of Sirota. A cytosolic fraction of the Russian sturgeon liver homogenate was used as the source of SOD. First, the sturgeon liver was washed with cold 0.2 M Tris (tris (hydroxymethyl) aminomethane) buffer (pH 7.8) to remove any traces of blood. All of the procedures were performed at a temperature of 0–4 °C. Next, a homogenate was obtained using a Potter homogenizer (Thomas Scientific, Swedesboro, NJ, USA) in 0.2 M Tris buffer at a ratio of 1:10. The homogenate was then centrifuged for 10 min at 1000× g to remove partially destroyed cells and nuclei. The resulting supernatant contained the enzymes of the cytosolic fraction of the liver homogenate, including the SOD. Here, 10 µL of the biopreparation was added to a cuvette with 200 µL of bicarbonate buffer (pH 10.65), 10 µL of the tested compound (initial concentrations of these compounds 25 µM) and 10 µL of 0.1% adrenaline solution and was thoroughly and quickly mixed. The rate of adrenaline oxidation without and in the presence of the biopreparation was evaluated by the change in optical density, measured at 347 nm for 3 min. The decrease in the rate of the process in the presence of the biopreparation was used to characterize the SOD-protective activity.

A short description of series [2]: DPPH radical scavenging activity. To be noted: compound solution 0.2 mM in MeOH mixed 1:1 with 0.2 mM DPPH, 40 min, 20 °C. The procedure:
The free radical scavenging activity was evaluated using the stable radical 2,2-diphenyl-1-picrylhydrazyl (DPPH), according to the method described by Brand-Williams with a slight modification. Solutions of the compounds in MeOH were studied at a concentration of 0.2 mM. The stock DPPH solution contained 0.2 mM of radical in MeOH. An amount of 0.1 mL of the test compound solution was added to 0.1 mL of DPPH solution (0.2 mM) in each cell so that the initial DPPH concentration in the cells was 0.1 mM. The microplate was placed in a spectrophotometer, and the decrease in the absorbance values of the DPPH solution for 40 min at 20 °C was measured at λmax = 517 nm. The results were expressed as scavenging activity, calculated as follows: scavenging activity, % = [(A0 − A1)/A0] × 100, where A0 is the optical density of the control solution DPPH, and A1 is the optical density of the reaction mixture solution.
Background: DPPH is a stable violet radical that fades when it is reduced.

The nature of series [3]: Ferric-reducing antioxidant power (FRAP). To be noted: Trolox equivalents (Trolox = 1). The text has this: To confirm the SET mechanism, the reducing activity of the compounds was studied using tests CUPRAC (Cupric-Reducing Antioxidant Capacity) and FRAP (Ferric ion-Reducing Antioxidant Power). Unlike the DPPH and ABTS tests, these methods are based only on the ability of substances to act as electron donors. It should be noted that the CUPRAC test has several advantages: the manifestation of activity at a pH close to the physiological value and a favorable redox potential; the method is applicable to both lipophilic and hydrophilic antioxidants. The antioxidant potential of the studied derivatives 4a–g and 5a is estimated in equivalents of the water-soluble analog of vitamin E—Trolox (TEAC—Trolox Equivalent Antioxidant Capacity), the activity of which is taken as the unit ([…] = 1, […] = 1).
The sample solution (0.1 mL) was mixed with 0.1 mL phosphate buffer (0.2 M, pH 6.6) and 0.1 mL potassium ferricyanide (1%). For each test compound, different concentrations of EtOH were used (5, 10, 25, 50, 100, 200 and 250 μM). The resulting mixture was incubated at 50 °C for 20 min. After the incubation period, 0.1 mL trichloroacetic acid (10%), 0.5 mL deionized water and 0.1 mL ferric chloride (0.1%) were added to the mixture. The sample absorbance was read at 700 nm with a 96-cell microplate spectrophotometer. The reduction of Fe (III) to Fe (II) could be expressed as % inhibition or the equivalent of a standard compound (e.g., Trolox).

Series [4] in a line: Nitric oxide radical scavenging assay (sodium nitroprusside, Griess). The following applies: sample solution 0.5 mM, sodium nitroprusside 5 mM, 150 min. The procedure:
The activity of compounds 4a–g and 5a with respect to NO^• generated from sodium nitroprusside, which further interacts with dissolved oxygen to form nitrite ions measured using the Griss reagent, was investigated.
Sodium nitroprusside (SNP) dissolved in aqueous solution at physiological pH 7.2 can generate nitric oxide whose level can be measured by the Griess reaction. Sample solution (50 µL, 0.5 mM) was mixed with SNP (50 µL, 5 mM) in phosphate buffer at pH 7.4 (0.2 M), followed by an incubation at room temperature for 150 min. Similarly, a blank was prepared by adding the sample solution in phosphate buffer without SNP. Griess reagent (solutions of 0.33% sulfanilic acid and 0.1% N-(1-naphthyl) ethylenediamine (NED) (C12H14N2) in 20% glacial acetic acid; 1:1) (100 µL) was added to the incubated sample and allowed to stand for 30 min. Absorbance values of the blank and samples were measured at 548 nm. The absorbance of the blank was then subtracted from that of the sample. Results were expressed as %inhibition. Inhibition I (%) = [(A0 − A1)/A0] × 100, where A1 is the absorbance in the presence of the testing compound, and A0 is the absorbance of the blank solution. All experiments were performed three times.
On the technique in general: The Griess reaction detects nitrite, a stable product of nitric oxide.

A short description of series [5]: Solubility in sodium phosphate buffer. In kind it is physicochemical. The following applies: aqueous buffer, kinetic from dmso stock; sodium phosphate buffer (pH 7.4, 0.1 M) containing 1% DMSO. The procedure: To our knowledge, no systematic studies of selenoureas as sEH inhibitors have been performed previously. The potency of the compounds was determined against the human recombinant sEH and their solubility assessed in phosphate-buffered saline (Table 1).

The nature of series [6]: ABTS radical cation scavenging. The procedure: Thus, at the further steps, the complex investigation of the target compounds’ ability to interact with protons, electrons, and radicals was conducted.

SMILES strings stand for the structures. Converted amounts (≈) assume the structure as drawn. “Also recorded” adds a separate entry of the source.

What is called solubility is how much of the substance goes into solution per volume. Read a low solubility as a poorly soluble substance. For `[Se]=C(Nc1ccccc1)NC12CC3CC(CC(C3)C1)C2` [4a, 1-(Adamantan-1-yl)-3-phenylselenourea], the “% Inhibition, Antiradical Activity (O2–•)” value (shortened to “% Inhibition … (O2–•)”) in series [1] is 35.49 ± 0.03%. In series [2], the “% Inhibition DPPH•” value was found to be 44.89 ± 0.04%. Moreover, the TEACFRAP in series [3] came out at 0.93 ± 0.06. Moreover, the “% Inhibition NO•” value in series [4] was “non active”. The molecule further displayed a solubility in series [5] of 55 ± 10 µM (≈ 18.3 µg/mL).
In the case of `[Se]=C(NCC12CC3CC(CC(C3)C1)C2)Nc1ccccc1` [4b, 1-[(Adamantan-1-yl)methyl]-3-phenylselenourea], the “% Inhibition ABTS+•” value in series [6] amounted to 53.01 ± 1.62%. For the same molecule, in series [1], the “% Inhibition … (O2–•)” value turned out to be 19.37 ± 0.88%. For the same molecule, in series [2], the “% Inhibition DPPH•” value was determined as 70.75 ± 1.10%. Also, the TEACFRAP in series [3] came to 1.14 ± 0.03. Further, the “% Inhibition NO•” value in series [4] turned out to be 20.57 ± 1.42%. In series [5], this molecule showed a solubility of 110 ± 20 µM (≈ 38.2 µg/mL).
As to `CC(NC(=[Se])Nc1ccccc1)C12CC3CC(CC(C3)C1)C2` (stereo not drawn) [4c, 1-[1-(Adamantan-1-yl)ethyl]-3-phenylselenourea], the “% Inhibition ABTS+•” value in series [6] was determined as 77.44 ± 1.78%. For the same molecule, the “% Inhibition … (O2–•)” value in series [1] is recorded as 21.64 ± 2.29%. Moreover, the “% Inhibition DPPH•” value in series [2] was 68.81 ± 1.69%. For the same molecule, the TEACFRAP in series [3] is recorded as 1.81 ± 0.08. For the same molecule, the “% Inhibition NO•” value in series [4] stood at 54.35 ± 2.38%. In series [5], this molecule yielded a solubility of 50 ± 5 µM (≈ 18.1 µg/mL).
Turning to `[Se]=C(NCCC12CC3CC(CC(C3)C1)C2)Nc1ccccc1` [4d, 1-[2-(Adamantan-1-yl)ethyl]-3-phenylselenourea], in series [6], the “% Inhibition ABTS+•” value came to 64.55 ± 2.30%. Besides, the “% Inhibition … (O2–•)” value in series [1] is 9.97 ± 0.41%. For the same molecule, the “% Inhibition DPPH•” value in series [2] is recorded as 70.90 ± 2.13%. Also, in series [3], the TEACFRAP was determined as 1.32 ± 0.01. Also, the “% Inhibition NO•” value in series [4] worked out at 31.36 ± 2.48%. In series [5], this molecule registered a solubility of 70 ± 10 µM (≈ 25.3 µg/mL).
For the molecule `[Se]=C(Nc1ccccc1)Nc1ccc(C23CC4CC(CC(C4)C2)C3)cc1` [4e, 1-[4-(Adamantan-1-yl)phenyl]-3-phenylselenourea], the “% Inhibition … (O2–•)” value in series [1] was determined as 23.68 ± 0.03%. In addition, in series [2], the “% Inhibition DPPH•” value is 66.15 ± 0.56%. In addition, the TEACFRAP in series [3] is on record as 1.13 ± 0.14. Moreover, the “% Inhibition NO•” value in series [4] was found to be 2.63 ± 0.99%. This molecule also came in with a solubility in series [5] of 30 ± 10 µM (≈ 12.3 µg/mL).
Take `CC12CC3CC(C)(C1)CC(NC(=[Se])Nc1ccccc1)(C3)C2` [4f, 1-(3,5-Dimethyladamantan-1-yl)-3-phenylselenourea]: the “% Inhibition ABTS+•” value in series [6] is given as “do not exhibit antiradical properties; also recorded: nonactive”. Besides, the “% Inhibition … (O2–•)” value in series [1] is given as 20.95 ± 1.20%. In series [2], the “% Inhibition DPPH•” value worked out at 58.35 ± 0.92%. Further, the TEACFRAP in series [3] was 0.57 ± 0.04. In series [4], the “% Inhibition NO•” value is listed as 7.27 ± 0.72%. Further, the solubility in series [5] came to 100 ± 10 µM (≈ 36.1 µg/mL).
`[Se]=C(Nc1ccccc1)NC1C2CC3CC(C2)CC1C3` (stereo not drawn) [4g, 1-(Adamantan-2-yl)-3-phenylselenourea]: the “% Inhibition ABTS+•” value in series [6] is 47.21 ± 1.20%. Also, in series [1], the “% Inhibition … (O2–•)” value is listed as 24.66 ± 1.33%. Further, the “% Inhibition DPPH•” value in series [2] worked out at 71.82 ± 1.10%. The TEACFRAP in series [3] came out at 1.39 ± 0.03. Further, the “% Inhibition NO•” value in series [4] was 27.91 ± 1.50%. For the same molecule, the solubility in series [5] was 80 ± 20 µM (≈ 26.7 µg/mL).
On to `[Se]=C(NCc1ccccc1)NC12CC3CC(CC(C3)C1)C2` [5a, 1-(Adamantan-1-yl)-3-benzylselenourea], for which the “% Inhibition … (O2–•)” value in series [1] is reported as 43.79 ± 0.02%. Besides, the “% Inhibition DPPH•” value in series [2] is 59.45 ± 0.09%. Besides, in series [3], the TEACFRAP turned out to be 1.19 ± 0.04. Also, in series [4], the “% Inhibition NO•” value is “non active”. In addition, the solubility in series [5] was 125 ± 20 µM (≈ 43.4 µg/mL).
